Converted amounts (≈) assume the structure as drawn.
Experiments:
Plasmodium falciparum [1] = experiment: Antimalarial activity against Plasmodium falciparum Ugandan field isolates after 48 hrs by [3H]-hypoxanthine incorporation assay; format: functional, organism-based
Plasmodium berghei = experiment: Antimalarial activity against Plasmodium berghei […]; format: functional
Plasmodium falciparum [2] = experiment: Antimalarial activity against Plasmodium falciparum K1 after 48 hrs by [3H]-hypoxanthine incorporation assay; format: functional, organism-based
Plasmodium falciparum [3] = experiment: Antimalarial activity against Plasmodium falciparum HB3 after 48 hrs by [3H]-hypoxanthine incorporation assay; format: functional, organism-based
Plasmodium falciparum [4] = experiment: Antimalarial activity against Plasmodium falciparum W2 after 48 hrs by [3H]-hypoxanthine incorporation assay; format: functional, organism-based
Plasmodium falciparum [5] = experiment: Antimalarial activity against Plasmodium falciparum FCR-3 after 48 hrs by [3H]-hypoxanthine incorporation assay; format: functional, organism-based; conditions: FCR-3/Gambia
Plasmodium falciparum [6] = experiment: Antimalarial activity against Plasmodium falciparum TM90C2B after 48 hrs by [3H]-hypoxanthine incorporation assay; format: functional, organism-based
Plasmodium falciparum [7] = experiment: Antimalarial activity against Plasmodium falciparum Dd2 after 48 hrs by [3H]-hypoxanthine incorporation assay; format: functional, organism-based
Plasmodium falciparum [8] = experiment: Antimalarial activity against Plasmodium falciparum AN3661 derived from malaria patient; format: functional
Plasmodium falciparum [9] = experiment: Antimalarial activity against Plasmodium falciparum 3D7 after 48 hrs by [3H]-hypoxanthine incorporation assay; format: functional, organism-based
[10] = tested on: Mycobacterium tuberculosis; experiment: Antimycobacterial activity against Mycobacterium tuberculosis H37Rv after 14 days by broth micro-dilution method; format: functional; conditions: 336 h
[11] = Inhibition of bacterial beta lactamase NDM-1; parameters: species or system Bacteria
[12] = Inhibition of bacterial beta lactamase VIM-2; parameters: species or system Bacteria
[13] = Inhibition of bacterial beta lactamase OXA-24; parameters: species or system Bacteria
[14] = target: 3',5'-cyclic-AMP phosphodiesterase 4B (Homo sapiens, UniProt Q07343); experiment: Inhibition of […] human recombinant PDE4B catalytic domain (152 to 484 residues)
[15] = tested on: Mycobacterium tuberculosis; experiment: […] activity against Mycobacterium tuberculosis; format: functional
[16] = tested on: Trypanosoma brucei brucei; experiment: Anti-parasitic activity against trypomastigote form of Trypanosoma brucei brucei 427 after 24 hrs by resazurin dye-based assay; format: functional, organism-based; conditions: Trypanosoma brucei, 427, 24 h
Trichomonas vaginalis = experiment: Antiprotozoal activity against Trichomonas vaginalis G3; format: functional, organism-based
Hep 3B2 = experiment: Antiproliferative activity against human Hep3B cells by MTT assay; format: functional, cell-based
HepG2 = experiment: Antiproliferative activity against human HepG2 cells by MTT assay; format: functional, cell-based
GH3 = experiment: Cytotoxicity against rat GH3 cells; format: functional, cell-based
[17] = target: Proteasome Macropain subunit MB1 (Homo sapiens, UniProt P28074); experiment: Inhibition of human chymotrypsin-like activity of 20S proteasome (unknown origin)
MDA-MB-231 [18] = experiment: Antiproliferative activity against human MDA-MB-231 cells after 72 hrs; format: functional, cell-based; conditions: MDA-MB-231, 72 h
THP-1 = experiment: Cytotoxicity against human THP1 cells after 72 hrs by SRB assay; format: functional, cell-based; conditions: THP-1, 72 h
[19] = Inhibition of bacterial beta lactamase KPC-2 after 5 mins; parameters: species or system Bacteria
[20] = Inhibition of bacterial beta lactamase OXA-48 after 5 mins; parameters: species or system Bacteria
[21] = Inhibition of Enterobacter cloacae beta lactamase P99 after 5 mins
[22] = Inhibition of bacterial beta lactamase OXA-10 after 5 mins; parameters: species or system Bacteria
[23] = Inhibition of Pseudomonas aeruginosa beta lactamase AmpC after 5 mins
[24] = Inhibition of bacterial beta lactamase OXA-24 after 5 mins; parameters: species or system Bacteria
[25] = Inhibition of bacterial beta lactamase CTX-M-15 after 5 mins; parameters: species or system Bacteria
Beta-lactamase TEM = Beta-lactamase TEM (Bacteria, UniProt P62593); experiment: Inhibition of bacterial beta lactamase TEM-1 after 5 mins
[26] = Inhibition of bacterial beta lactamase KPC-2; parameters: species or system Bacteria
[27] = Inhibition of bacterial beta lactamase CTX-M-15; parameters: species or system Bacteria
Leishmania panamensis = experiment: Antileishmanial activity Leishmania panamensis MHOM/PA/67/BOYNTON after 72 hrs by giemsa staining based light microscopic analysis; format: functional, organism-based
Leishmania aethiopica = experiment: Antileishmanial activity Leishmania aethiopica MHOM/ET/84/KH after 72 hrs by giemsa staining based light microscopic analysis; format: functional, organism-based
Leishmania tropica [28] = experiment: Antileishmanial activity Leishmania tropica AO21/p after 72 hrs by giemsa staining based light microscopic analysis; format: functional, organism-based
Leishmania tropica [29] = experiment: Antileishmanial activity Leishmania tropica MHOM/IR/2013/HTD4 after 72 hrs by giemsa staining based light microscopic analysis; format: functional, organism-based; conditions: MHOM/IR/2013/HTD4, 72 h
Leishmania major = experiment: Antileishmanial activity Leishmania major MHOM/SA/85/JISH118 after 72 hrs by giemsa staining based light microscopic analysis; format: functional, organism-based; conditions: MHOM/SA/85/JISH118, 72 h
Leishmania mexicana = experiment: Antileishmanial activity Leishmania mexicana MNYC/BZ/62/M379 after 72 hrs by giemsa staining based light microscopic analysis; format: functional, organism-based; conditions: MNYC/BZ/62/M379, 72 h
[30] = Inhibition of bacterial beta lactamase AmpC; parameters: species or system Bacteria
[31] = Inhibition of bacterial beta lactamase CTX-M-9; parameters: species or system Bacteria
MDA-MB-231 [32] = experiment: Antiproliferative activity against human MDA-MB-231 cells by MTT assay; format: functional, cell-based
HCT-116 = experiment: Antiproliferative activity against human HCT116 cells by MTT assay; format: functional, cell-based
SK-OV-3 = experiment: Antiproliferative activity against human SKOV3 cells by MTT assay; format: functional, cell-based
A2780 = experiment: Antiproliferative activity against human A2780 cells by MTT assay; format: functional, cell-based
Enterococcus faecium = experiment: Antibacterial activity against Enterococcus faecium ATCC 568; format: functional
Streptococcus pneumoniae = experiment: Antibacterial activity against Streptococcus pneumoniae ATCC 49619; format: functional

Sequence of Proteasome Macropain subunit MB1 (P28074 whole entry): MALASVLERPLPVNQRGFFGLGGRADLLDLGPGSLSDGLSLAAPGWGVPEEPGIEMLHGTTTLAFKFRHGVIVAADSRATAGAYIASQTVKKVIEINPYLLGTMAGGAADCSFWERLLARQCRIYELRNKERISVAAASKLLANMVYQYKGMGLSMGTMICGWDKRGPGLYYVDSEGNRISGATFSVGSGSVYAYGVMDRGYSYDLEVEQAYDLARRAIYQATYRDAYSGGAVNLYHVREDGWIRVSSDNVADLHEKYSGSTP
Sequence of Beta-lactamase TEM (P62593 whole entry): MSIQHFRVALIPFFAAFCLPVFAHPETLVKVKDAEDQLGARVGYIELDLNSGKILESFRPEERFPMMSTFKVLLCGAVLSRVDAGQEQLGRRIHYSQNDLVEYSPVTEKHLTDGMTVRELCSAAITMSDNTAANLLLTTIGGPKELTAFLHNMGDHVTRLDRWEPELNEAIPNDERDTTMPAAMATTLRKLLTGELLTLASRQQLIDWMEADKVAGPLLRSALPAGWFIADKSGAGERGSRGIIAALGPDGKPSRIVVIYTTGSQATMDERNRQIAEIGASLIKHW
Sequence of 3',5'-cyclic-AMP phosphodiesterase 4B (Q07343 whole entry, the tested form may be a part): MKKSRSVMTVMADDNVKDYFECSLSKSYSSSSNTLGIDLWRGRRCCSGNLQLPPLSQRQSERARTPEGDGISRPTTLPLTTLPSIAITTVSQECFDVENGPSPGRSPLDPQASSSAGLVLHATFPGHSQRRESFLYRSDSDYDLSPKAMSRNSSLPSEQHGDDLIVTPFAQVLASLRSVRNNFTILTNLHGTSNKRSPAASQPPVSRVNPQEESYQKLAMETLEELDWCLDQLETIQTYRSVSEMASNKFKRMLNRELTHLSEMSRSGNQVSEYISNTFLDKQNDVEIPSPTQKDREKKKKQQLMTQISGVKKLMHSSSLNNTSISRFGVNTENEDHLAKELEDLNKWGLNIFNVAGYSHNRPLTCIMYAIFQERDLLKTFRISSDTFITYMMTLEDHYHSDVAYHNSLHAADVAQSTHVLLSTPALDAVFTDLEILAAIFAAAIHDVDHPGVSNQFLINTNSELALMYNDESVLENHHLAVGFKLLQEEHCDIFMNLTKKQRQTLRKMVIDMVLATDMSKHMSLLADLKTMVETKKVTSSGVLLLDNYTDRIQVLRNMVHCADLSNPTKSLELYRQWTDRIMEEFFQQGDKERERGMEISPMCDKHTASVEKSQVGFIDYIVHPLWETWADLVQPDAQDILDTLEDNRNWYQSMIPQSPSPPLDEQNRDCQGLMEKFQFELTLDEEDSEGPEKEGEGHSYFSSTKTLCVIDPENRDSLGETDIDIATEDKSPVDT

Question: With O=C(O)CCc1cccc2c1B(O)OC2 as the compound, how does the IC50 (Plasmodium falciparum [1]) read?
Answer: 64 nM

Question: And the ED90 (Plasmodium berghei)?
Answer: 0.57 mg/kg

Question: And the IC50 (Plasmodium falciparum [2])?
Answer: 32 nM

Question: What about the IC50 (Plasmodium falciparum [3]) of the same compound?
Answer: 32 nM

Question: And the IC50 (Plasmodium falciparum [4])?
Answer: 32 nM

Question: What about the IC50 (Plasmodium falciparum [5]) of the same compound?
Answer: 32 nM

Question: What about the IC50 (Plasmodium falciparum [6]) of the same compound?
Answer: 32 nM

Question: What about the IC50 (Plasmodium falciparum [7]) of the same compound?
Answer: 32 nM

Question: What about the ED90 (Plasmodium falciparum [8]) of the same compound?
Answer: 0.34 mg/kg

Question: What about the IC50 (Plasmodium falciparum [9]) of the same compound?
Answer: 32 nM

Question: With Nc1ccc2c(c1Br)B(O)OC2 as the compound, how does the MIC99 [10] read?
Answer: 1.9 µM (≈ 0.433 µg/mL)

Question: Which IC50 [11] does the source give for O=C(O)c1cccc2cc(B(O)O)sc12 here?
Answer: 20200 to 27700 nM

Question: What about the IC50 [12] of the same compound?
Answer: 20200 to 27700 nM

Question: What about the IC50 [13] of the same compound?
Answer: 23000 nM

Question: With CC(C)OCCOc1nc(Oc2ccc3c(c2)COB3O)ccc1C#N as the compound, how does the IC50 [14] read?
Answer: 2.1 to 8.4 nM

Question: For O=C(/C=C/c1ccc2c(c1)OCO2)Nc1ccc2c(c1)B(O)OC2, which MIC99 [15] is on record?
Answer: 40.7 µM (≈ 13.2 µg/mL)

Question: And the IC50 [16]?
Answer: 86 nM

Question: And the IC50 (Trichomonas vaginalis)?
Answer: 22800 nM

Question: Which results are given for Cc1cnn(B(n2cc(C)cn2)n2cc(C)cn2)c1?
Answer: IC50 (Hep 3B2): 15200 nM; IC50 (HepG2): 1250 nM

Question: With CCOC(=O)/C(C#N)=C/c1ccc(B(O)O)cc1 as the compound, how does the IC50 (GH3) read?
Answer: 140 nM

Question: Which results are given for CSC[C@H](NC(=O)c1cc(Cl)ccc1Cl)C(=O)N[C@@H](CC(C)C)B1OCCNCCO1?
Answer: IC50 [17]: 4.6 nM; IC50 (MDA-MB-231 [18]): 8.4 nM

Question: Which MIC99 [10] does the source give for Cc1ccc2c(c1-c1ccccc1C(N)=O)B(O)OC2 here?
Answer: 5 µM (≈ 1.34 µg/mL)

Question: What about the IC50 (THP-1) of the same compound?
Answer: 1800 nM

Question: What does the source list for Cc1c(Oc2nc(N)ns2)cc2c(c1C)[C@@H](CC(=O)O)OB2O?
Answer: IC50 [19]: 5 to 3900 nM; IC50 [20]: 5 to 3900 nM; IC50 [21]: 5 to 3900 nM; IC50 [22]: 5 to 3900 nM; IC50 [23]: 5 to 3900 nM; IC50 [24]: 5 to 3900 nM; IC50 [25]: 5 to 3900 nM; IC50 (Beta-lactamase TEM): 5 to 3900 nM

Question: Which results are given for CC(C)(C)OC(=O)Nc1cccc2cc(B(O)O)sc12?
Answer: IC50 [26]: 2300 to 4500 nM; IC50 [27]: 2300 to 4500 nM

Question: For O=C(Nc1ccc2c(c1)B(O)OC2)c1cn(-c2ccccn2)nn1, which EC50 (Leishmania panamensis) is on record?
Answer: 2000 to 23000 nM

Question: What about the EC50 (Leishmania aethiopica) of the same compound?
Answer: 2000 to 23000 nM

Question: And the EC50 (Leishmania tropica [28])?
Answer: 2000 to 23000 nM

Question: And the EC50 (Leishmania tropica [29])?
Answer: 2000 to 23000 nM

Question: What about the EC50 (Leishmania major) of the same compound?
Answer: 2000 to 23000 nM

Question: What about the EC50 (Leishmania mexicana) of the same compound?
Answer: 2000 to 23000 nM

Question: Which results are given for O=C(O)/C=C/c1c(B(O)O)sc2ccccc12?
Answer: Ki [30]: 40 to 90 nM; Ki [31]: 40 to 90 nM

Question: For CC(C)(C)OC(=O)c1cccc2cc(B(O)O)sc12, which IC50 [26] is on record?
Answer: 2300 to 4500 nM

Question: What about the IC50 [27] of the same compound?
Answer: 2300 to 4500 nM

Question: What about the IC50 [11] of the same compound?
Answer: 20200 to 27700 nM

Question: And the IC50 [12]?
Answer: 20200 to 27700 nM

Question: Which IC50 [30] does the source give for NCc1ccc2sc(B(O)O)cc2c1 here?
Answer: 400 nM

Question: Which IC50 (MDA-MB-231 [32]) does the source give for O=C(/C=C/c1ccc2c(c1)B(O)OC2)c1ccc(F)cc1 here?
Answer: 1400 to 2800 nM

Question: And the IC50 (HCT-116)?
Answer: 1400 to 2800 nM

Question: What about the IC50 (SK-OV-3) of the same compound?
Answer: 1400 to 2800 nM

Question: With OB1OC(N2CCOCC2)c2cc(F)ccc21 (stereo unspecified) as the compound, how does the IC50 (A2780) read?
Answer: 14800 nM

Question: With CC[C@H]1OC(=O)[C@H](C)[C@@H](O[C@H]2C[C@@](C)(OC)[C@@H](OC(=O)NCCCNC(=O)CCc3cccc4c3B(O)OC4)[C@H](C)O2)[C@H](C)[C@@H](O[C@@H]2O[C@H](C)C[C@H](N(C)C)[C@H]2O)[C@](C)(O)C[C@@H](C)CN(C)[C@H](C)[C@H]2OC(=O)O[C@@]21C as the compound, how does the MIC (Enterococcus faecium) read?
Answer: 0.13 µg/mL (≈ 0.122 µM)

Question: What about the MIC (Streptococcus pneumoniae) of the same compound?
Answer: 0.13 µg/mL (≈ 0.122 µM)

Question: With CN(C)CCOc1cc(NC(=O)c2ccc3c(c2)COB3O)ccc1Cl as the compound, how does the EC50 (Leishmania panamensis) read?
Answer: 2000 to 23000 nM

Question: What about the EC50 (Leishmania aethiopica) of the same compound?
Answer: 2000 to 23000 nM

Question: And the EC50 (Leishmania tropica [28])?
Answer: 2000 to 23000 nM

Question: And the EC50 (Leishmania tropica [29])?
Answer: 2000 to 23000 nM

Question: And the EC50 (Leishmania major)?
Answer: 2000 to 23000 nM

Question: And the EC50 (Leishmania mexicana)?
Answer: 2000 to 23000 nM

Question: With CCc1cccc(Nc2ccn(CCC(=O)N[C@@H](CC(C)C)B(O)O)c(=O)c2)c1 as the compound, how does the Ki [17] read?
Answer: 17 nM
